± gives the standard deviation of the reports.

Our source for the glass transition temperature values is the PolyMetriX glass transition set.

In turn, `*CC(*)(C)c1ccccc1` (repeat unit) [poly(alpha-methylstyrene)] registered a glass transition temperature of 168.00 ± 140 °C.

Take `*CC(*)(C)C(=O)OCCCC` (repeat unit) [poly(butyl methacrylate)]: the glass transition temperature is 22.42 ± 6.3 °C.

Turning to `*c1ccc(-c2nc3cc(-c4ccc5nc(-c6ccccc6)c(*)nc5c4)ccc3nc2-c2ccccc2)cc1` (repeat unit) [poly(phenylquinoxaline)], the glass transition temperature came to 367.43 ± 3.4 °C.

`*CC(*)C1CCCCC1` (repeat unit) [poly(vinylcyclohexane)] had a glass transition temperature of 104.78 ± 28 °C.

The source holds these as a separate data set.
`*Oc1ccc(C(c2ccc(Oc3cccc4c3C(=O)N(c3ccc(Oc5ccc(N6C(=O)c7cccc(*)c7C6=O)cc5)cc3)C4=O)cc2)(C(F)(F)F)C(F)(F)F)cc1` (repeat unit): the glass transition temperature turned out to be 226.00 °C.

Regarding `*Oc1c(F)c(F)c(Oc2c(F)c(F)c3c(c2F)C(=O)N(c2c(F)c(F)c(F)c(N4C(=O)c5c(F)c(*)c(F)c(F)c5C4=O)c2F)C3=O)c(F)c1F` (repeat unit), the glass transition temperature was found to be 309.00 °C.

Compound `*Oc1c(F)c(F)c(Oc2c(F)c(F)c3c(c2F)C(=O)N(c2c(F)c(F)c(Oc4c(F)c(F)c(N5C(=O)c6c(F)c(*)c(F)c(F)c6C5=O)c(F)c4F)c(F)c2F)C3=O)c(F)c1F` (repeat unit) had a glass transition temperature of 300.00 °C.

`*Oc1c(F)c(F)c(Oc2c(F)c(F)c3c(c2F)C(=O)N(c2c(F)c(F)c(Sc4c(F)c(F)c(N5C(=O)c6c(F)c(*)c(F)c(F)c6C5=O)c(F)c4F)c(F)c2F)C3=O)c(F)c1F` (repeat unit) had a glass transition temperature of 278.00 °C.

For the compound `*c1ccc(-c2ccc(N3C(=O)c4cc5c(cc4C3=O)C(c3ccccc3)(C(F)(F)F)c3cc4c(cc3O5)C(=O)N(*)C4=O)cc2C(F)(F)F)c(C(F)(F)F)c1` (repeat unit), the glass transition temperature is 400.00 °C.

`*c1ccc2c(c1)C(=O)N(c1c(F)cc(Oc3ccc(C(c4ccc(Oc5cc(F)c(N6C(=O)c7ccc(C(*)(C(F)(F)F)C(F)(F)F)cc7C6=O)c(F)c5)cc4)(C(F)(F)F)C(F)(F)F)cc3)cc1F)C2=O` (repeat unit): the glass transition temperature is 224.00 °C.

`*Oc1ccc2c(c1)C(=O)N(c1ccc(C(=O)c3ccc(N4C(=O)c5ccc(*)cc5C4=O)cc3)cc1)C2=O` (repeat unit): the glass transition temperature amounted to 274.00 °C.

As to `*C(=O)Oc1ccc2ccccc2c1-c1c(OC(=O)c2ccc3c(c2)C(=O)N(c2ccc(C(=O)Oc4ccc5ccccc5c4-c4c(OC(=O)c5ccc(N6C(=O)c7ccc(*)cc7C6=O)cc5)ccc5ccccc45)cc2)C3=O)ccc2ccccc12` (repeat unit), the glass transition temperature was 266.50 °C.

As to `*C(=O)c1ccc2c(c1)C(=O)N(c1ccc(C(=O)Oc3ccc4ccccc4c3-c3c(OC(=O)c4ccc(N5C(=O)c6ccc(*)cc6C5=O)cc4)ccc4ccccc34)cc1)C2=O` (repeat unit), the glass transition temperature amounted to 273.50 °C.

In turn, `*c1ccc2c(c1)C(=O)N(c1ccc(-c3ccc(N4C(=O)c5ccc(C(*)(C(F)(F)F)C(F)(F)F)cc5C4=O)cc3-c3cccc(C(F)(F)F)c3)c(-c3cccc(C(F)(F)F)c3)c1)C2=O` (repeat unit) gave a glass transition temperature of 278.00 °C.

In turn, `*Oc1ccc2c(c1)C(=O)N(c1cccc(Oc3ccc(P(=O)(c4ccccc4)c4ccc(Oc5ccc(N6C(=O)c7ccc(*)cc7C6=O)cc5)cc4)cc3)c1)C2=O` (repeat unit) registered a glass transition temperature of 240.00 °C.

Regarding `*C(=O)c1ccc2c(c1)C(=O)N(c1cc(N3C(=O)c4ccc(*)cc4C3=O)ccc1OCC(F)(F)C(F)(F)C(F)(F)C(F)(F)C(F)(F)C(F)(F)C(F)(F)C(F)(F)C(F)(F)C(F)(F)F)C2=O` (repeat unit), the glass transition temperature was 194.00 °C.

Turning to `*C(=O)c1ccc2c(c1)C(=O)N(c1ccc(S(=O)(=O)c3ccc(N4C(=O)c5ccc(*)cc5C4=O)cc3)cc1)C2=O` (repeat unit), the glass transition temperature amounted to 307.00 °C.

Consider `*C(=O)c1ccc2c(c1)C(=O)N(c1cccc(C(=O)c3ccccc3N3C(=O)c4ccc(*)cc4C3=O)c1)C2=O` (repeat unit), for which the glass transition temperature worked out at 259.00 °C.

With `*C(=O)c1ccc2c(c1)C(=O)N(c1c(CC)cc(Cc3cc(CC)c(N4C(=O)c5ccc(*)cc5C4=O)c(CC)c3Cl)c(Cl)c1CC)C2=O` (repeat unit), the glass transition temperature was 300.00 °C.

Consider `*C(=O)c1ccc2c(c1)C(=O)N(c1ccc(Cc3cccc(N4C(=O)c5ccc(*)cc5C4=O)c3)cc1)C2=O` (repeat unit), for which the glass transition temperature amounted to 292.00 °C.

Consider `*C(=O)c1ccc2c(c1)C(=O)N(c1cccc(Oc3cccc(N4C(=O)c5ccc(*)cc5C4=O)c3)c1)C2=O` (repeat unit), for which the glass transition temperature worked out at 221.00 °C.

`*c1ccc2c(c1)C(=O)N(c1ccc(Cc3ccc(N4C(=O)c5ccc(*)cc5C4=O)c(C)c3C)c(C)c1C)C2=O` (repeat unit): the glass transition temperature amounted to 297.00 °C.

Turning to `*c1ccc(Cc2ccc(-n3c(=O)c4cc5c(=O)n(*)c(=O)c5cc4c3=O)c(C)c2)cc1C` (repeat unit), the glass transition temperature came out at 274.00 °C.

Take `*Oc1cccc(C(C)(C)c2ccc(Oc3ccc4c(c3)C(=O)N(c3ccc(Oc5ccc(N6C(=O)c7ccc(*)cc7C6=O)cc5)cc3)C4=O)cc2)c1` (repeat unit): the glass transition temperature came out at 223.00 °C.

The compound `*Oc1cccc(Oc2ccc(Oc3ccc4c(c3)C(=O)N(c3ccc(Oc5ccc(N6C(=O)c7ccc(*)cc7C6=O)cc5)cc3)C4=O)cc2)c1` (repeat unit) yielded a glass transition temperature of 215.00 °C.

`*Oc1cccc(S(=O)(=O)c2ccc(Oc3ccc4c(c3)C(=O)N(c3ccc(Oc5ccc(N6C(=O)c7ccc(*)cc7C6=O)cc5)cc3)C4=O)cc2)c1` (repeat unit): the glass transition temperature is 260.00 °C.

As to `*Oc1cccc(Sc2ccc(Oc3ccc4c(c3)C(=O)N(c3ccc(Oc5ccc(N6C(=O)c7ccc(*)cc7C6=O)cc5)cc3)C4=O)cc2)c1` (repeat unit), the glass transition temperature is 212.00 °C.

Consider `*Oc1cccc(S(=O)(=O)c2ccc(Oc3cccc4c3C(=O)N(c3ccc(Oc5ccc(N6C(=O)c7cccc(*)c7C6=O)cc5)cc3)C4=O)cc2)c1` (repeat unit), for which the glass transition temperature turned out to be 267.00 °C.

The compound `*Oc1cccc(Sc2ccc(Oc3cccc4c3C(=O)N(c3ccc(Oc5ccc(N6C(=O)c7cccc(*)c7C6=O)cc5)cc3)C4=O)cc2)c1` (repeat unit) showed a glass transition temperature of 234.00 °C.

`*Oc1cccc(S(=O)(=O)c2ccc(Oc3ccc4c(c3)C(=O)N(c3ccc(Oc5cccc(Oc6ccc(N7C(=O)c8ccc(*)cc8C7=O)cc6)c5)cc3)C4=O)cc2)c1` (repeat unit) returned a glass transition temperature of 194.00 °C.

In turn, `*Oc1ccc(C(C)(C)c2ccc(Cc3ccc4c(c3)C(=O)N(c3cccc(N5C(=O)c6ccc(*)cc6C5=O)c3)C4=O)cc2)cc1` (repeat unit) yielded a glass transition temperature of 215.00 °C.

Turning to `*Oc1cccc(C(C)(C)c2ccc(Oc3ccc4c(c3)C(=O)N(c3cccc(N5C(=O)c6ccc(*)cc6C5=O)c3)C4=O)cc2)c1` (repeat unit), the glass transition temperature came to 215.00 °C.

Turning to `*Oc1cccc(S(=O)(=O)c2ccc(Oc3ccc4c(c3)C(=O)N(c3cccc(N5C(=O)c6ccc(*)cc6C5=O)c3)C4=O)cc2)c1` (repeat unit), the glass transition temperature stood at 265.00 °C.

`*Oc1cccc(C(C)(C)c2ccc(Oc3cccc4c3C(=O)N(c3cccc(N5C(=O)c6cccc(*)c6C5=O)c3)C4=O)cc2)c1` (repeat unit) yielded a glass transition temperature of 236.00 °C.

`*Oc1cccc(Oc2ccc(Oc3cccc4c3C(=O)N(c3cccc(N5C(=O)c6cccc(*)c6C5=O)c3)C4=O)cc2)c1` (repeat unit) displayed a glass transition temperature of 238.00 °C.

Consider `*Oc1cccc(S(=O)(=O)c2ccc(Oc3cccc4c3C(=O)N(c3cccc(N5C(=O)c6cccc(*)c6C5=O)c3)C4=O)cc2)c1` (repeat unit), for which the glass transition temperature came to 266.00 °C.

The compound `*Oc1cccc(Sc2ccc(Oc3cccc4c3C(=O)N(c3cccc(N5C(=O)c6cccc(*)c6C5=O)c3)C4=O)cc2)c1` (repeat unit) gave a glass transition temperature of 231.00 °C.

The compound `*Oc1cccc2c1C(=O)N(c1cccc(Oc3ccc(C(=O)c4ccc(Oc5cccc(N6C(=O)c7cccc(*)c7C6=O)c5)cc4)cc3)c1)C2=O` (repeat unit) came in with a glass transition temperature of 198.00 °C.

Regarding `*Oc1cccc2c1C(=O)N(c1cccc(S(=O)(=O)c3cccc(N4C(=O)c5cccc(*)c5C4=O)c3)c1)C2=O` (repeat unit), the glass transition temperature was 241.00 °C.

Compound `*C(=O)c1ccc2c(c1)C(=O)N(c1ccc(Cc3ccccc3N3C(=O)c4ccc(*)cc4C3=O)cc1)C2=O` (repeat unit) gave a glass transition temperature of 290.00 °C.

Turning to `*C(=O)c1ccc2c(c1)C(=O)N(c1ccc(Oc3ccccc3N3C(=O)c4ccc(*)cc4C3=O)cc1)C2=O` (repeat unit), the glass transition temperature came to 287.00 °C.

The compound `*C(=O)c1ccc2c(c1)C(=O)N(c1cccc(Oc3ccccc3N3C(=O)c4ccc(*)cc4C3=O)c1)C2=O` (repeat unit) came in with a glass transition temperature of 259.00 °C.

`*Oc1ccc(Oc2ccc(Oc3cccc4c3C(=O)N(CCCCCCCCN3C(=O)c5cccc(*)c5C3=O)C4=O)cc2)cc1` (repeat unit) had a glass transition temperature of 128.00 °C.
